From patent publication US5573923A, “Method for removing N-terminal dipeptides from precursor polypeptides with immobilized dipeptidylaminopeptidase from dictyostelium discoideum” (Eli Lilly and Company, priority 1993, dated 1996) come the findings set out here.

Residues, ends and D or L forms follow the SMILES beside them. *: point of attachment. pNA = O=[N+]([O-])c1ccc(N*)cc1; AMC = Cc1cc(=O)oc2cc(N*)ccc12; βNA = c1ccc2cc(N*)ccc2c1; Cbz = O=C(OCc1ccccc1)*

The target of test [1] is T1, bovine DAP-I (Bos taurus, UniProt Q3ZCJ8).
T1 construct: bovine spleen DAP-I; from tissue; host or cells: bovine spleen
The test can be described thus: Cleavage of RRBNA and Z-RRBNA (fluorescence increase). It is filed as biochemical. To be noted: about 0.25 mM substrate, pH 3.5 or pH 5.0, about 15 milliunit/ml enzyme. The protocol: (§1) About 0.25 mM RRBNA or 0.25 mM Z-RRBNA was prepared in either 100 mM acetic acid, pH 3.5, or 100 mM citrate buffer, pH 5.0. To 2 ml of substrate was added dDAP or bovine DAP-I (about 15 milliunit/ml solution). Rates of cleavage (monitoring fluorescence increase at 410 nm with excitation at 340 nm) were monitored. […] The pH optimum for cleavage of RRBNA was probed by monitoring the rate of RRBNA cleavage using a buffer system consisting of 50 mM acetic acid and 50 mM citrate. Various pHs were achieved using HCl or NaOH and 1.5 ml volumes were made 2.0 with 0.5 ml of a 1 mM stock solution of RRBNA (final concentration of about 0.25 mM). dDAP was added (to about 15 mU/ml) and the rates of cleavage were determined.

The subject of test [2] is dDAP. The test is described as follows: pH dependence of substrate cleavage by dDAP. The class given is biochemical, Dictyostelium discoideum. To be noted: unbound dDAP. The method, then: The pH optima for the GFpNA cleaving ability of dDAP was determined by adjusting a buffer consisting of 0.5M Tris®, phosphate and citrate with 10% HCl or 10% NaOH to various pHs within the range of 3 to 8. dDAP enzyme was diluted 20-fold in a buffer containing 100 mM cysteamine and 10 mM NaCl. Bovine DAP-I was diluted 200-fold in the same buffer. A GFpNA substrate solution (4 mM) was prepared in 2% dimethylformamide. In a microtiter plate, 0.025 ml of the Tris/phosphate/citrate buffer of various pH's was combined with 0.1 ml of diluted enzyme and with 0.1 ml of substrate solution. The rate of increase of absorbance at 410 nm was determined on a plate-reader over a 30 minute period.
Four mM GRpNA was prepared in 50 mM acetic acid, 50 mM glycine buffer, pH 5. HCl or NaOH was used to achieve a variety of pHs, from 5.1 to 2.3. To 180 ul of the above pH buffered substrate was added 5 ul dDAP (49 milliunits/ml final). The rate of increase of absorbance at 410 nm was monitored (using a plate-reader) and the rate of increase was compared with the pH of the reaction solution.
as §1
The skilled artisan will recognize that the optimum pH for cleavage of a substrate not only depends upon the enzyme but the substrate itself, that is, the constitution of the removed dipeptide as well as the indicator group itself.

The test system of test [3] is dDAP. The test is described as follows: Cleavage of RRBNA and Z-RRBNA (fluorescence increase). To be noted: about 0.25 mM substrate, pH 3.5 or pH 5.0, about 15 milliunit/ml enzyme. The class given is biochemical, Dictyostelium discoideum. The protocol: as §1
The target of test [4] is T2, bovine spleen DAP-I (Bos taurus, UniProt Q3ZCJ8).
T2 construct: bovine spleen DAP-I; from tissue; host or cells: bovine spleen
The test can be described thus: Inhibition of GFpNA cleavage by sulfhydryl modifying agents. To be noted: 5 mM inhibitor, 15 minutes at room temperature, pH 7; then 4 mM GFpNA, pH 3.5, 37° C.; read-out: decrease (inhibition) of rate of cleavage of GFpNA. It is filed as biochemical. The protocol:
(§2) After purification or storage, dDAP enzymatic activity was usually monitored by following the cleavage of the chromogenic substrate GFpNA. Typically the assay was performed by diluting the enzyme at least 11 fold into 1.0 ml of 4 mM GFpNA in 0.05M acetic acid adjusted to pH 3.5. The rate of cleavage of Gly-Phe dipeptide was monitored at 37° C. by measuring the increase in absorbance at 405 nm. One unit of activity leads to a 0.90 OD change per minute under these conditions. Unit/ml estimates can be made assuming an extinction coefficient for free p-nitroanilide (pNA) of 9.9 mM-1 cm-1 at 405 nm.
(§3) The inhibition profile of dDAP toward the substrate GFpNA was compared to that of bovine spleen DAP-I using iodoacetamide and potassium tetrathionate, sulfhydryl modifying agents known to inhibit the activity of bovine spleen DAP-I. Samples of dDAP or bovine spleen DAP-I were incubated for 15 minutes at room temperature in final concentrations of 0, 0.5, 5.0 or 50 mM of either inhibitor at pH 7 in 100 mM Tris buffer. The incubated solutions were then diluted 21-fold with 4 mM GFpNA, pH 3.5. The rate of cleavage was monitored by measuring the increase in absorbance at 405 nm at 37° C. Bovine DAP-I's rate of cleavage of GFpNA was decreased more than 90% by the exposure to 5 mM iodoacetamide and was 95% inhibited by 5 mM potassium tetrathionate.

Test [5] has as its system dDAP. Described as above. The class given is biochemical, Dictyostelium discoideum. To be noted: 0.5, 5.0 or 50 mM inhibitor, 15 minutes at room temperature, pH 7; then 4 mM GFpNA, pH 3.5, 37° C. The protocol: as §2, §3

T1 sequence (Q3ZCJ8 231-394 limits assumed): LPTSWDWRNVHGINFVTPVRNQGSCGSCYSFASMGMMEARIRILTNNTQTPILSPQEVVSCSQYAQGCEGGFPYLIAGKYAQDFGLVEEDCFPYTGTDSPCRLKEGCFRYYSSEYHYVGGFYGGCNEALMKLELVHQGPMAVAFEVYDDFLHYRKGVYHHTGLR
T1 sequence (Q3ZCJ8 395-463 limits assumed): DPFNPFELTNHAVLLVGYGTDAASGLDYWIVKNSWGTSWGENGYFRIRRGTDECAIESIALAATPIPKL
T1 sequence (Q3ZCJ8 25-143 limits assumed): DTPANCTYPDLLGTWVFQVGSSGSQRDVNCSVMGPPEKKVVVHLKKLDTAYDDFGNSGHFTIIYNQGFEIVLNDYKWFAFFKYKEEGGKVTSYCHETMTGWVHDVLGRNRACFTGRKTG
T2 sequence (Q3ZCJ8 231-394 limits assumed): as the sequence (Q3ZCJ8 231-394 limits assumed) above
T2 sequence (Q3ZCJ8 395-463 limits assumed): as the sequence (Q3ZCJ8 395-463 limits assumed) above
T2 sequence (Q3ZCJ8 25-143 limits assumed): as the sequence (Q3ZCJ8 25-143 limits assumed) above

As to `N=C(N)NCCC[C@H](NC(=O)[C@@H](N)CCCNC(=N)N)C(=O)Nc1ccc2ccccc2c1` [RRBNA, Arg-Arg-β-naphthylamide] (H-Arg-Arg-βNA), the cleavage of substrate result in test [1] was “unable to cleave”; in test [3], “able to effectively cleave”. Moreover, in test [2], the “activity over the pH range” value is given as “significant activity seen over the entire range probed (pH 3.5 to pH 5.7)”.

Take `NCC(=O)N[C@@H](Cc1ccccc1)C(=O)Nc1ccc([N+](=O)[O-])cc1` [GFpNA, Gly-Phe p-nitroanilide] (H-Gly-Phe-pNA): in test [2], the “pH optimum for cleavage of the substrate” value is listed as about 3.5 pH.

For orientation: inhibition means the percentage by which the read-out fell short of the control. As for `NC(=O)CI` [iodoacetamide], the inhibition at 5000 µM in test [4] is over 90%. For the same molecule, the “inhibition of GFpNA cleavage” value in test [5] is “no evidence of significant inhibition”.

As to `N=C(N)NCCC[C@H](NC(=O)CN)C(=O)Nc1ccc([N+](=O)[O-])cc1` [GRpNA, Gly-Arg-pNA] (H-Gly-Arg-pNA), in test [2], the “activity over the pH range” value is “little activity below pH 2.5 or above pH 5”. Besides, in test [2] (listed as G1y-Arg-pNA), the “pH optimum for cleavage of the substrate” value is about 3.5 pH.

In the case of `O=S(=O)([O-])SSS(=O)(=O)[O-].[K+].[K+]` [potassium tetrathionate], the “inhibition of GFpNA cleavage” value in test [5] is “no evidence of significant inhibition”.

As to `N=C(N)NCCC[C@H](NC(=O)OCc1ccccc1)C(=O)N[C@@H](CCCNC(=N)N)C(=O)Nc1ccc2ccccc2c1` [Z-RRBNA, Benzyioxycarbonyl-RRBNA] (Cbz-Arg-Arg-βNA), the cleavage of substrate entry in test [1] and in test [3] was “unable to cleave” each time.

As for `Cc1cc(=O)oc2cc(NC(=O)[C@H](CCCNC(=N)N)NC(=O)CN)ccc12` [Gly-Arg-7-amido-4-methylcoumarin] (H-Gly-Arg-{AMC}), the “pH optimum for cleavage of the substrate” value in test [2] is reported as about 5 pH.
